Measured values published in ChEMBL document CHEMBL3045606, “Virtual screening and biochemical evaluation of the inhibitors of dual-specificity phosphatase 26” (Med Chem Res, 2013).

Assays:
[1] = target: T1, Dual specificity protein phosphatase 26 (Homo sapiens, UniProt Q9BV47); assay: inhibition of Homo sapiens (human) recombinant DUSP26 catalytic domain (61 to 211 amino acid residues) overexpressed in Escherichia coli BL21 (DE3) assessed as hydrolysis of 3-ortho-methylfluorescein phosphate after 30 min by spectrofluorometric analysis
T1 sequence (Q9BV47 whole entry): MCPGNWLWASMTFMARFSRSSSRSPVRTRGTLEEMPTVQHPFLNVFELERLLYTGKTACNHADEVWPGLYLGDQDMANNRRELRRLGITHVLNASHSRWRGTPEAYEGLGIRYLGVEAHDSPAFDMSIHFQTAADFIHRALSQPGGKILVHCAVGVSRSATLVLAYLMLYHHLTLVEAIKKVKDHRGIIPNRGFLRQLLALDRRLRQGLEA

[2] = target: T1, Dual specificity protein phosphatase 26; assay: Inhibition of DUSP26 (unknown origin)-mediated p38 dephosphorylation

| SMILES | IC50 [1] | IC50 [2] |
| --- | --- | --- |
| O=C(O)CCN1C(=O)/C(=C/c2cn(-c3ccccc3)nc2-c2cccc([N+](=O)[O-])c2)SC1=S | 22.3 µM |  |
| O=C(O)c1cccc(N2C(=O)/C(=C\c3ccc(O)c(O)c3)SC2=S)c1 | 25.1 µM |  |
| O=C(CN1C(=O)/C(=C\C=C\c2ccccc2)SC1=S)Nc1ccc(O)cc1C(=O)O | 26.3 µM |  |
| C=CCOc1ccc(/C=C2\SC(=S)N(c3cccc(C(=O)O)c3)C2=O)cc1 | 30.2 µM |  |
| CCc1cc(CC)cc(OCCOc2ccccc2/C=C2/C(=O)NN(c3ccccc3)C2=O)c1 | 36.6 µM |  |
| CCN1C(=O)/C(=C/c2ccccc2OCc2ccccc2C#N)S/C1=N/c1ccc(C(=O)O)cc1 | 41.7 µM |  |
| O=C1OC(c2ccc(Cl)cc2)=C/C1=C\c1ccc(-c2cccc(C(=O)O)c2)o1 | > 100 µM |  |
| Cc1ccc(C2=C/C(=C\c3ccc(-c4cccc(C(=O)O)c4)o3)C(=O)O2)cc1 | > 100 µM |  |
| CN1C(=O)/C(=C/c2ccc(OCc3cccc([N+](=O)[O-])c3)cc2)S/C1=N/c1cccc(C(=O)O)c1 | 19.8 µM |  |
| CN1C(=O)/C(=C/c2ccc(OCc3ccc(F)cc3)cc2)S/C1=N/c1cccc(C(=O)O)c1 | 26.9 µM |  |
| O=C1OC(c2ccc(Cl)cc2)=C/C1=C\c1ccc(-c2ccc(Cl)c(C(=O)O)c2)o1 | 8.9 µM |  |
| CN1C(=O)/C(=C/c2ccc(OCc3cccc(F)c3)cc2)S/C1=N/c1cccc(C(=O)O)c1 | 12.5 µM |  |
| O=C(O)c1ccc(Cl)cc1Nc1nc2ccccc2nc1NS(=O)(=O)c1ccc(Cl)cc1 | 17 µM |  |
| O=S(=O)(O)c1ccc2cc(/N=N/c3cc(S(=O)(=O)O)c4cccnc4c3O)ccc2c1 |  | 16.7 µM |
